From patent publication US20240018145A1, “[…]-DEPENDENT EN[…] TREATING OR […]” (priority 2020, published 2024)
pEC50: −log10 of the molar value. Read-outs that look alike come from different tables or passages of the source.

System: FLU A (PR/8/34)
Experiment: Flu A Neuraminidase Antiviral Assay
Type: cell-based

| Structure (SMILES) | pEC50 | pEC50 (MDCK, 48 h) |
| --- | --- | --- |
| CN1C(=O)c2c(O)c(=O)ccn2N2C(c3ccccc3)CCCC12 (single isomer, unassigned) [Compound 1B, 7-hydroxy-5-methyl-1-phenyl-1,2,3,4,4a,5-hexahydrodipyrido[1,2-b:2′,1′-f][1,2,4]triazine-6,8-dione] | 7.40 | – |
| CN1C(=O)c2c(O)c(=O)ccn2N2C(c3ccccc3)C(c3ccc(F)c(F)c3F)CCC12 (single isomer, unassigned) [Compound 85B, 7-hydroxy-5-methyl-1-phenyl-2-(2,3,4-trifluorophenyl)-1,2,3,4,4a,5-hexahydrodipyrido[1,2-b:2′,1′-f][1,2,4]triazine-6,8-dione] | 8.01 | – |
| CN1C(=O)c2c(O)c(=O)ccn2N2[C@H](c3ccccc3)[C@H](OCC3(C#N)CCC3)CC[C@@H]12 [Compound 159, 1-((((1R,2R,4aS)-7-hydroxy-5-methyl-6,8-dioxo-1-phenyl-1,2,3,4,4a,5,6,8-octahydrodipyrido[1,2-b:2′,1′-f][1,2,4]triazin-2-yl)oxy)methyl)cyclobutane-1-carbonitrile] | – | 6.68 |
| CN1C(=O)c2c(O)c(=O)ccn2N2C(c3cc(F)ccc3C(F)(F)F)CCCC12 (single isomer, unassigned) [Compound 13A, 1-(5-fluoro-2-(trifluoromethyl)phenyl)-7-hydroxy-5-methyl-1,2,3,4,4a,5-hexahydro-dipyrido[1,2-b:2′,1′-f][1,2,4]triazine-6,8-dione] | < 5.09 | – |
| CN1C(=O)c2c(O)c(=O)ccn2N2C(c3ccccc3)C(CC(F)F)CCC12 (single isomer, unassigned) [Compound 129B, 2-(2,2-difluoroethyl)-7-hydroxy-5-methyl-1-phenyl-1,2,3,4,4a,5-hexahydrodipyrido[1,2-b:2′,1′-f][1,2,4]triazine-6,8-dione] | 6.71 | – |
| CCCC1CCC2N(CC)C(=O)c3c(O)c(=O)ccn3N2C1c1ccccc1F (single isomer, unassigned) [Compound 96A, 5-ethyl-1-(2-fluorophenyl)-7-hydroxy-2-propyl-1,2,3,4,4a,5-hexahydrodipyrido[1,2-b:2′,1′-f][1,2,4]triazine-6,8-dione] | < 6.09 | – |
| CN1C(=O)c2c(O)c(=O)ccn2N2C1CCC1(CCCC(F)(F)C1)C2c1ccccc1 (single isomer, unassigned) [Compound 75B, 3,3-difluoro-7′-hydroxy-5′-methyl-1′-phenyl-3′,4′,4a′,5′-tetrahydro-1′H-spiro[cyclohexane-1,2′-dipyrido[1,2-b:2′,1′-f][1,2,4]triazine]-6′,8′-dione] | 8.10 | – |
| CCN1C(=O)c2c(O)c(=O)ccn2N2C(c3ccccc3Br)C(CC(F)(F)F)CCC12 (single isomer, unassigned) [Compound 106A, 1-(2-bromophenyl)-5-ethyl-7-hydroxy-2-(2,2,2-trifluoroethyl)-1,2,3,4,4a,5-hexahydrodipyrido[1,2-b:2′,1′-f][1,2,4]triazine-6,8-dione] | 8.19 | – |
| CN1C(=O)c2c(O)c(=O)ccn2N2C(c3ccccc3F)C(CC(F)F)CCC12 (single isomer, unassigned) [Compound 113B, 2-(2,2-difluoroethyl)-1-(2-fluorophenyl)-7-hydroxy-5-methyl-1,2,3,4,4a,5-hexahydrodipyrido[1,2-b:2′,1′-f][1,2,4]triazine-6,8-dione] | 8.14 | – |
| CCN1C(=O)c2c(O)c(=O)ccn2N2C1CCCC2(C)c1cccc(C2CC2)n1 (single isomer, unassigned) [Compound 55B, 1-(6-cyclopropylpyridin-2-yl)-5-ethyl-7-hydroxy-1-methyl-1,2,3,4,4a,5-hexahydrodipyrido[1,2-b:2′,1′-f][1,2,4]triazine-6,8-dione] | 7.73 | – |
| CN1C(=O)c2c(O)c(=O)ccn2N2C1CCCC2(C)c1cccc(Cl)c1 (single isomer, unassigned) [Compound 28A, 1-(3-chlorophenyl)-7-hydroxy-1,5-dimethyl-1,2,3,4,4a,5-hexahydrodipyrido[1,2-b:2′,1′-f][1,2,4]triazine-6,8-dione] | 8.28 | – |
| CCN1C(=O)c2c(O)c(=O)cc(COC)n2N2C(c3ccccc3)C(CC(F)(F)F)CCC12 (stereo not drawn) [Compound 131B, 5-ethyl-7-hydroxy-10-(methoxymethyl)-1-phenyl-2-(2,2,2-trifluoroethyl)-1,2,3,4,4a,5-hexahydrodipyrido[1,2-b:2′,1′-f][1,2,4]triazine-6,8-dione] | < 6.09 | – |
| CC1(c2ccccc2)CCCC2N(CC3CC(F)(F)C3)C(=O)c3c(O)c(=O)ccn3N21 (single isomer, unassigned) [Compound 45A, 5-((3,3-difluorocyclobutyl)methyl)-7-hydroxy-1-methyl-1-phenyl-1,2,3,4,4a,5-hexahydrodipyrido[1,2-b:2′,1′-f][1,2,4]triazine-6,8-dione] | < 5.09 | – |
| CN1C(=O)c2c(O)c(=O)ccn2N2C(c3ccccc3)C(CCC3CC3)CCC12 (single isomer, unassigned) [Compound 115C, 2-(2-cyclopropylethyl)-7-hydroxy-5-methyl-1-phenyl-1,2,3,4,4a,5-hexahydrodipyrido[1,2-b:2′,1′-f][1,2,4]triazine-6,8-dione] | 8.57 | – |
| Cc1c(F)cccc1C1C(CC(F)(F)F)CCC2N(C)C(=O)c3c(O)c(=O)ccn3N12 (single isomer, unassigned) [Compound 80B, 1-(3-fluoro-2-methylphenyl)-7-hydroxy-5-methyl-2-(2,2,2-trifluoroethyl)-1,2,3,4,4a,5-hexahydrodipyrido[1,2-b:2′,1′-f][1,2,4]triazine-6,8-dione] | 8.48 | – |
| CN1C(=O)c2c(O)c(=O)ccn2N2C(c3ccccc3F)C(CC(F)(F)F)CCC12 (single isomer, unassigned) [Compound 127B, 1-(2-fluorophenyl)-7-hydroxy-5-methyl-2-(2,2,2-trifluoroethyl)-1,2,3,4,4a,5-hexahydrodipyrido[1,2-b:2′,1′-f][1,2,4]triazine-6,8-dione] | 8.52 | – |
| CN1C(=O)c2c(O)c(=O)ccn2N2C(c3ccccc3)C(CC(F)F)CCC12 (single isomer, unassigned) [Compound 129D, 2-(2,2-difluoroethyl)-7-hydroxy-5-methyl-1-phenyl-1,2,3,4,4a,5-hexahydrodipyrido[1,2-b:2′,1′-f][1,2,4]triazine-6,8-dione] | 7.04 | – |
| CN1C(=O)c2c(O)c(=O)ccn2N2C(c3ccccc3F)C(CC(F)(F)F)CCC12 (single isomer, unassigned) [Compound 127A, 1-(2-fluorophenyl)-7-hydroxy-5-methyl-2-(2,2,2-trifluoroethyl)-1,2,3,4,4a,5-hexahydrodipyrido[1,2-b:2′,1′-f][1,2,4]triazine-6,8-dione] | 5.46 | – |
| Cc1ccccc1C1C(CC2CC2(F)F)CCC2N(C)C(=O)c3c(O)c(=O)ccn3N12 (single isomer, unassigned) [Compound 88B] | < 6.09 | – |
| Cc1ccccc1C1C(CCC(F)F)CCC2N(C)C(=O)c3c(O)c(=O)ccn3N12 (single isomer, unassigned) [Compound 103A, 2-(3,3-difluoropropyl)-7-hydroxy-5-methyl-1-(o-tolyl)-1,2,3,4,4a,5-hexahydrodipyrido[1,2-b:2′,1′-f][1,2,4]triazine-6,8-dione] | < 6.09 | – |
| CN1C(=O)c2c(O)c(=O)ccn2N2C(c3cc(F)ccc3OC(F)F)CCCC12 (single isomer, unassigned) [Compound 17B, 1-(2-(difluoromethoxy)-5-fluorophenyl)-7-hydroxy-5-methyl-1,2,3,4,4a,5-hexahydrodipyrido[1,2-b:2′,1′-f][1,2,4]triazine-6,8-dione] | 6.99 | – |
